We go through five compounds from US10421761B2, “Compounds for kinase modulation, and indications therefor” (Plexxikon Inc., priority 2013, dated 2019).

The subject of assay [1] is IPC-298 (NRAS Q61L) cell line. In words: IPC-298 P-ERK cell activation assay (AlphaScreen). Format: cell-based, human. The settings on record: RAS mutant cell line IPC-298; one hour treatment. A digest of the protocol: (§1)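 Mouse B9 (HRAS-driven skin SCC) or human IPC-298 melanoma cells treated with an 8-point compound titration for one hour at 37° C., then lysed. ERK1/2 phosphorylation at Thr202/Tyr204 read by AlphaScreen with total-ERK and phospho-ERK antibodies.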
(In general: Alpha assays give light when donor and acceptor beads are brought close together.)

Assay [2] concerns B9 (HRAS Q61L) cell line. Put plainly: B9 P-ERK cell activation assay (AlphaScreen). It is filed as cell-based, mouse. The settings on record: RAS mutant cell line B9; one hour treatment. The method in brief: as §1
Assay [3] relates to mutant BRAF V600 driven melanoma. The conditions noted are these: cited from earlier work.
In assay [4] the test system is A375 (BRAF V600E) cell line. Put plainly: A375 P-ERK inhibition assay (AlphaScreen). It is filed as cell-based, human. The conditions noted are these: BRAF V600E cell line A375. The method in brief: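 A375 cells treated with 8-point compound titration for 1 h at 37° C, then lysed. ERK1/2 Thr202/Tyr204 phosphorylation measured by AlphaScreen, using biotinylated total-ERK antibody on donor beads and phospho-specific antibody on acceptor beads.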

Assay [5] concerns B9 cells. Put plainly: Anchorage-independent growth assay of B9 cells in soft agar. The conditions noted are these: 3 weeks; for effect on vemurafenib-induced B9 colony formation: combination with vemurafenib, soft agar. It is filed as cell-based, mouse. How it is done: Anchorage-independent growth assay. 2.5×10^4 B9 cells were plated in each well of a six-well plate with a bottom layer of 1% and a top layer of 0.4% low melting agar (Sigma A4018, Dallas, Tex.) containing RPMI1640 medium with 10% FBS. For RAF inhibitor study, B9 cells grown in soft agar were treated with vemurafenib, compound P-1000 or compound A at indicated concentration or dimethyl sulfoxide (DMSO) for 3 weeks. For EGFR ligand study, B9 cells grown in soft agar were treated with AREG (R&D systems 989-AR, Minneapolis, Minn.), TGFα (R&D systems 239-A, Minneapolis, Minn.) or HB-EGF (R&D systems 259-HE, Minneapolis, Minn.) at the indicated concentrations for 3 weeks. For vemurafenib and erlotinib combination study, B9 cells grown in soft agar were treated with vemurafenib, erlotinib or a combination of the two compounds at the indicated concentrations or DMSO for 3 weeks. Anchorage-independent colonies ≥100 μm were scored using AxioVision Rel 4.8 software (CarlZeiss, Wake Forest, N.C.).
B9 cells grown in soft agar were treated with AREG, TGFα or HBEGF at the indicated concentrations for 3 weeks. Anchorage-independent colonies ≥100 μm were scored. B9 cells grown in soft agar were treated with vemurafenib or a combination of vemurafenib and erlotinib at the indicated concentrations for 3 weeks. Anchorage-independent colonies ≥100 μm were scored.

Assay [6] concerns gastric cancer cell line MKN28. The conditions noted are these: cited from earlier work.

Entries after “also recorded” stand apart in the source; their conditions may differ.

In the case of `CC(C)(C)c1nc(-c2cccc(NS(=O)(=O)c3c(F)cccc3F)c2F)c(-c2ccnc(N)n2)s1` [dabrafenib, reference compound], the pERK activation result in assay [1] and in assay [2] was “unusual bell-shaped pERK activation curve” each time. Moreover, the “tumor response in patients” value in assay [3] is listed as “objective tumor response”. In addition, in assay [4], the pERK inhibition result is listed as “highly potent inhibitor”. For `C#Cc1cccc(Nc2ncnc3cc(OCCOC)c(OCCOC)cc23)c1` [Erlotinib], the “effect on vemurafenib-induced B9 colony formation” value in assay [5] is reported as “inhibited”; in assay [5] (listed as erlotinib) it was “antagonizes vemurafenib-induced B9 colony formation”. As to `COc1ccc2c(c1)c(CC(=O)O)c(C)n2C(=O)c1ccc(Cl)cc1` [indomethacin], the “proliferation and growth of MKN28” value in assay [6] was “significantly inhibit proliferation and growth”. For `CCCS(=O)(=O)Nc1ccc(F)c(C(=O)c2c[nH]c3ncc(Cl)cc23)c1F` [P-1000, N-[3-(5-chloro-1H-pyrrolo[2,3-b]pyridine-3-carbonyl)-2,4-difluoro-phenyl]propane-1-sulfonamide], the “B9 colony formation / anchorage-independent growth in soft agar” value in assay [5] (colonies ≥100 μm scored) was “stimulated B9 colony formation; also recorded: increased anchorage independent cell growth”. For the compound `CS(=O)(=O)Nc1ccc([N+](=O)[O-])cc1OC1CCCCC1` [NS-398], the “proliferation and growth of MKN28” value in assay [6] is “significantly inhibit proliferation and growth”.
